Measured values reported in EP0508511B1 (KNOLL AG, priority 1991, dated 1992).

Test system: wacher normotoner Hunde
Assay: Diastolic blood pressure in conscious normotensive dogs
Format: in vivo
Conditions: Trandolapril alone, 3 mg/kg/Tag

In the case of CCOC(=O)[C@H](CCc1ccccc1)N[C@@H](C)C(=O)N1[C@H](C(=O)O)C[C@H]2CCCC[C@@H]21 [Trandolapril, N-(1s-Carbethoxy-3-phenylpropyl)-S-alanyl-2S,3aR,7aS-octa-hydroindol-2-carbonsäure], the “Senkung des diastolischen Blutdruckes” value was “weder Verapamil-SR allein (10 mg/kg/Tag) noch Trandolapril allein (3 mg/kg/Tag) den diastolischen Blutdruck wacher normotoner Hunde zu senken vermögen”.
